Our source for the IC50 and EC50 values is patent publication US20230357253A1, “AGONISTS OF STIMULATOR OF INTERFERON GENES STING” (THE SCRIPPS RESEARCH INSTITUTE, priority 2020, published 2023).

Broadly, the IC50 is the point on the concentration scale where inhibition reaches its midpoint. As a reminder, the EC50 is the concentration needed to bring the measured effect to its halfway point. Low readings indicate greater potency, high ones weaker potency.

SMILES strings stand for the structures. Some results are limits rather than exact numbers.

human STING protein, sequence (Q86WV6 whole entry): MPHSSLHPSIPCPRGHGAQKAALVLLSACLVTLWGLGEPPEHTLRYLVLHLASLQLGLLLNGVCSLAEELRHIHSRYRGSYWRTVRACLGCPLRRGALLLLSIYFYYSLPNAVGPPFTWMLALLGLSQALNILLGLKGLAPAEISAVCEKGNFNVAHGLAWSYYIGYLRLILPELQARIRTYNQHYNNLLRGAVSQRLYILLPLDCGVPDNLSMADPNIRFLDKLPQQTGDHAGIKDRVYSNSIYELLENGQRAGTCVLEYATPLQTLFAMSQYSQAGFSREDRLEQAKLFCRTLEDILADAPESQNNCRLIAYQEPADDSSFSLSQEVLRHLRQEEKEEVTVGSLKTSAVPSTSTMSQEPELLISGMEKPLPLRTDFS

The target of the first test is human STING protein (Homo sapiens (Human), UniProt Q86WV6). In words: WT STING binding assay (HTRF, competition with labeled 2′3′cGAMP). The conditions noted are these: recombinant 6×His-tagged human STING, three hours at room temperature. The protocol:
WT STING binding assay (Cisbio, Catalog #64BDSTGPEH). […] Upon proximity of the two dyes, the excitation of the donor by the flash lamp on the PHERAstar FSX plate reader triggers a Fluorescence Resonance Energy Transfer (FRET) towards the acceptor, which in turn fluoresces at 665 nm. To assess the ability of the synthetic small molecule STING ligands to bind to human STING, a competitive assay format was applied. A 10-point titration of each of the synthetic ligands in 5 uL were transferred into a 384 well plate, followed by 20 uL of assay buffer containing the 6×His-tagged human STING protein and labeled 2′3′cGAMP ligand and incubated for three hours at room temperature. The raw values obtained from the PHERAstar were used to calculate the reported IC50 values (the signal is inversely proportional to the binding of the synthetic ligand) through curve fitting in Genedata. The percent inhibition was calculated based upon the maximal amount of binding by synthetic compound versus the maximum binding of unlabeled 2′3′ cGAMP which was used as a control in each assay.
(Time-resolved FRET reads energy transfer from a long-lived donor to a nearby acceptor.)
Take `O=C(Nc1cc(OCCCOc2cc(NC(=O)c3ccc(-n4ccnc4)nn3)c(C(=O)O)cc2F)c(F)cc1C(=O)O)c1ccc(N2CCOCC2)nn1` [Compound 211]: the 50% inhibitory concentration (IC50) lay in the range of 100 to 1000 nM.

Regarding `CC(=O)Nc1cc(CCCc2cc(NC(=O)c3ccc(-n4ccnc4)nn3)c(C(=O)O)cc2F)ccc1C(=O)O` [Compound 73], the IC50 is 100 to 1000 nM.

On to `O=C(Nc1cc(OCCc2cc(NC(=O)c3ccc(-n4ccnc4)nn3)c(-c3nn[nH]n3)cc2F)c(F)cc1C(=O)O)c1ccc(-n2ccnc2)nn1` [Compound 179], for which the IC50 is 100 to 1000 nM.

Take `O=C(Nc1cc(OCCc2cc(NC(=O)c3ccc(-n4ccnc4)nn3)c(C(=O)O)cc2F)c(F)cc1C(=O)O)c1ccc(-c2cn[nH]c2)nn1` [Compound 158]: the IC50 fell in the range of 100 to 1000 nM.

Regarding `Cn1nccc1-c1ccc(C(=O)Nc2cc(CCCc3cc(NC(=O)c4ccc(-c5ccnn5C)nn4)c(C(=O)O)cc3F)c(F)cc2C(=O)O)nn1` [Compound 201], the IC50 was 100 to 1000 nM.

Regarding `O=C(Nc1cc(OCCCCOc2cc(NC(=O)c3ccc(-n4ccnc4)nn3)c(C(=O)O)cc2Cl)ccc1C(=O)O)c1ccc(-n2ccnc2)nn1` [Compound 81], the IC50 is 100 to 1000 nM.

Regarding `O=C(Nc1cc(CCCc2cc(NC(=O)c3ccc4cnnn4n3)c(C(=O)O)cc2F)c(F)cc1C(=O)O)c1ccc(O)nn1` [Compound 120], the half-inhibitory concentration (IC50) fell in the range of 100 to 1000 nM.

As to `O=C(Nc1cc(CCOc2cc(NC(=O)c3ccc(-n4ccnc4)nn3)c(C(=O)O)cc2F)c(F)cc1CO)c1ccc(-n2ccnc2)nn1` [Compound 198], the half-maximal inhibitory concentration (IC50) lay within 100 to 1000 nM.

For `O=C(Nc1cc(F)c(CCOc2cc(C(=O)O)c(NC(=O)c3ccc(-n4ccnc4)nn3)cc2F)cc1C(=O)O)c1ccc(-n2ccnc2)nn1` [Compound 178], the half-inhibitory concentration (IC50) fell in the range of 100 to 1000 nM.

Turning to `O=C(Nc1cc(CCOc2cc(NC(=O)c3ccc(-n4ccnc4)nn3)c(P(=O)(O)O)cc2F)c(F)cc1C(=O)O)c1ccc(-n2ccnc2)nn1` [Compound 153], the half-inhibitory concentration (IC50) lay in the range of 100 to 1000 nM.

Another test relates to THP-1 Lucia ISG cells. In words: ISRE-luciferase assay (ISG-LUC activation). Conditions: Homo sapiens, THP1-Lucia ISG, 24 hours, luciferase reporter. Type of test: cell-based. The protocol: ISRE-luciferase assay. THP-1 Lucia ISG cells were resuspended in low-serum growth media (2% FBS) at a density of 5×10^5 cells/ml and treated with test article or vehicle (DMSO). 50 μL of cells were seeded into each well of a 384-well white greiner plates and incubated for 24 hours. To evaluate expression of the luciferase reporter, 30 μl of Quanti-luc (Invivogen) detection reagent was added to each well and luminescence was read using an Envision plate reader (Perkin Elmer) set with an integration time of 0.1 seconds. For each cell type, luminescence signals for test article samples were normalized to vehicle-treated samples and reported as relative light units (RLU).
`COc1cc(C(=O)O)c(NC(=O)c2ccc(-n3ccnc3)nn2)cc1OCCc1cc(C(=O)O)c(NC(=O)c2ccc(-n3ccnc3)nn2)cc1C#N` [Compound 130] showed an EC50 of 50 to 500 nM.

For `O=C(Nc1cc(CSCc2cc(NC(=O)c3ccc(-n4ccnc4)nn3)c(C(=O)O)cc2F)c(F)cc1C(=O)O)c1ccc(-n2ccnc2)nn1` [Compound 132], the EC50 is < 50 nM.

On to `O=C(Nc1cc(OCCCCOc2cnc(C(=O)O)c(NC(=O)c3ccc(-n4ccnc4)nn3)c2)cnc1C(=O)O)c1ccc(-n2ccnc2)nn1` [Compound 45], for which the half-maximal effective concentration (EC50) is > 5000 nM.

As to `COC(=O)c1cc(F)c(CCCc2cc(NC(=O)c3ccc(-n4ccnc4)nn3)c(C(=O)OC)s2)cc1NC(=O)c1ccc(-n2ccnc2)nn1` [Compound 165], the EC50 is 50 to 500 nM.

With `O=C(Nc1cc(CCOc2cc(NC(=O)c3ccc(-n4ccnc4)nn3)c(C(=O)O)cc2F)c(F)cc1C(=O)O)c1ccc(-c2cn[nH]c2)nn1` [Compound 205], the 50% effective concentration (EC50) was < 50 nM.

`COC(=O)c1cc(F)c(CCOc2cc(NC(=O)c3ccc(-n4ccnc4)nn3)c(C(=O)OC)cc2C#N)cc1NC(=O)c1ccc(-n2ccnc2)nn1` [Compound 163] yielded a concentration giving a half-maximal response (EC50) of 500 to 5000 nM.

For `COC(=O)c1ccc(CCCc2ccc(NC(=O)c3ccc(-n4ccnc4)nn3)c(C(=O)OC)c2)cc1NC(=O)c1ccc(-n2ccnc2)nn1` [Compound 53], the EC50 was > 5000 nM.

For the compound `COC(=O)c1cc(F)c(CCCc2cc(NC(=O)c3ccc(-n4ccnc4)nn3)c(C(=O)OC)cc2OC)cc1NC(=O)c1ccc(-n2ccnc2)nn1` [Compound 54], the EC50 is < 50 nM.

For `O=C(Nc1cc(CCCc2cc(C(=O)O)c(NC(=O)c3ccc(-n4ccnc4)nn3)cc2F)c(F)cc1C(=O)O)c1ccc(-n2ccnc2)nn1` [Compound 70], the 50% effective concentration (EC50) was in the range of 500 to 5000 nM.

Consider `CC(CCOc1cc(NC(=O)c2ccc(-n3ccnc3)nn2)c(C(=O)O)cc1F)Oc1cc(NC(=O)c2ccc(-n3ccnc3)nn2)c(C(=O)O)cc1F` (stereo not drawn) [Compound 5, 4,4′-(butane-1,3-diylbis(oxy))bis(2-(6-(1H-imidazol-1-yl)pyridazine-3-carboxamido)-5-fluorobenzoic acid)], for which the EC50 lay within 50 to 500 nM.

In turn, `COC(=O)Cc1cc(F)c(CCOc2cc(NC(=O)c3ccc(-n4ccnc4)nn3)c(C(=O)OC)cc2F)cc1NC(=O)c1ccc(-n2ccnc2)nn1` [Compound 131] displayed an EC50 of 500 to 5000 nM.

With `O=C(Nc1cc(CCCc2cc(NC(=O)c3ccc4nnnn4n3)c(C(=O)O)cc2F)c(F)cc1C(=O)O)c1ccc(-n2ccnc2)nn1` [Compound 67], the EC50 fell in the range of 50 to 500 nM.

The compound `O=C(Nc1cc(OCCCOc2cc(NC(=O)c3ccc(-n4ccnc4)nn3)c(C(=O)O)cc2F)c(F)cc1C(=O)O)c1ccc(-n2ccnc2)nn1` [Compound 168] returned an EC50 of 50 to 500 nM.

Regarding `O=C(Nc1cc(OCCCCOc2ccc(C(=O)O)c(NC(=O)c3ccc(-n4ccnc4)nn3)c2)ccc1C(=O)O)c1ccc(O)nn1` [Compound 35], the concentration giving a half-maximal response (EC50) is > 5000 nM.

With `COC(=O)c1cc(F)c(OCCCCOc2c(F)cc(C(=O)OC)c(NC(=O)c3ccc(-n4ccnc4)nn3)c2F)c(F)c1NC(=O)c1ccc(-n2ccnc2)nn1` [Compound 36], the EC50 was < 50 nM.

Consider `N#Cc1cc(C(=O)O)c(NC(=O)c2ccc(-n3ccnc3)nn2)cc1CCOc1cc(NC(=O)c2ccc(-n3ccnc3)nn2)c(C(=O)O)cc1F` [Compound 162], for which the 50% effective concentration (EC50) lay within 50 to 500 nM.

As for `O=C(Nc1cc(CCCc2ccc(C(=O)O)c(NC(=O)c3ccc4nnnn4n3)c2)ccc1C(=O)O)c1ccc2nnnn2n1` [Compound 14], the concentration for a half-maximal effect (EC50) was in the range of 500 to 5000 nM.

On to `C=C(Cc1cc(NC(=O)c2ccc(-n3ccnc3)nn2)c(C(=O)O)cc1F)Cc1cc(NC(=O)c2ccc(-n3ccnc3)nn2)c(C(=O)O)cc1F` [Compound 199], for which the EC50 lay within 50 to 500 nM.

Regarding `O=C(Nc1cc(OCc2cc(C(=O)O)c(NC(=O)c3ccc(-n4ccnc4)nn3)cc2F)c(F)cc1C(=O)O)c1ccc(-n2ccnc2)nn1` [Compound 190], the EC50 is > 5000 nM.

Take `COc1cc2c(=O)oc(-c3ccc(-n4ccnc4)nn3)nc2cc1OCCCCOc1cc2nc(-c3ccc(-n4ccnc4)nn3)oc(=O)c2cc1OC` [Compound 41]: the EC50 was < 50 nM.

`O=C(Nc1cc(CCCCc2cc(C(=O)O)c(NC(=O)c3ccc(-n4ccnc4)nn3)cc2F)c(F)cc1C(=O)O)c1ccc(-n2ccnc2)nn1` [Compound 127]: the concentration giving a half-maximal response (EC50) lay in the range of 500 to 5000 nM.

On to `O=C(Nc1cc(CCCc2cc(NC(=O)c3ccc(-n4ccnc4)nn3)c(C(=O)O)cc2Cl)ccc1C(=O)O)c1ccc(-n2ccnc2)nn1` [Compound 66], for which the EC50 is 50 to 500 nM.

`COc1cc(C(=O)O)c(NC(=O)c2ccc(-n3ccnc3)nn2)cc1CCCc1cc(NC(=O)c2ccc(-n3ccnc3)nn2)c(C(=O)O)cc1F` [Compound 59] returned a half-maximal effective concentration (EC50) of 50 to 500 nM.

In turn, `O=C(Nc1cc(F)c(CCCc2cc(NC(=O)c3ccc4nnnn4n3)c(C(=O)O)cc2F)cc1C(=O)O)c1ccc(-n2ccnc2)nn1` [Compound 94] showed an EC50 of 50 to 500 nM.

As for `O=c1oc(-c2ccc(-n3ccnc3)nn2)nc2c(F)c(OCCCCOc3c(F)cc4c(=O)oc(-c5ccc(-n6ccnc6)nn5)nc4c3F)c(F)cc12` [Compound 9, 7,7′-(butane-1,4-diylbis(oxy))bis(2-(6-(1H-imidazol-1-yl)pyridazin-3-yl)-6,8-difluoro-4H-benzo[d][1,3]oxazin-4-one)], the EC50 lay in the range of 500 to 5000 nM.

Turning to `COC(=O)c1cc(F)c(CCOc2cc(NC(=O)c3ccc4nnnn4n3)c(C(=O)OC)cc2F)cc1NC(=O)c1ccc(-n2ccnc2)nn1` [Compound 113], the half-maximal effective concentration (EC50) was < 50 nM.
